According to patent publication US20030143729A1 (Synaptic Pharmaceutical Corporation, priority 1992, published 2003):
Where two headings read alike, the source gives them in different places.

What was measured:
GAT-2 = molecular target: T1, GAT-2 (Rattus norvegicus, UniProt P31646); test: [3H]GABA uptake by COS cells transfected with GAT-2 (rB14b); assay type: cell-based
T1 construct: randomly primed GAT-2 full-length or GAT-3 truncated or full-length cDNA clones; expressed in transfected cells; host or cells: COS cells, transient, plasmid pEVJB-rB14b
T1 sequence (P31646 1-602): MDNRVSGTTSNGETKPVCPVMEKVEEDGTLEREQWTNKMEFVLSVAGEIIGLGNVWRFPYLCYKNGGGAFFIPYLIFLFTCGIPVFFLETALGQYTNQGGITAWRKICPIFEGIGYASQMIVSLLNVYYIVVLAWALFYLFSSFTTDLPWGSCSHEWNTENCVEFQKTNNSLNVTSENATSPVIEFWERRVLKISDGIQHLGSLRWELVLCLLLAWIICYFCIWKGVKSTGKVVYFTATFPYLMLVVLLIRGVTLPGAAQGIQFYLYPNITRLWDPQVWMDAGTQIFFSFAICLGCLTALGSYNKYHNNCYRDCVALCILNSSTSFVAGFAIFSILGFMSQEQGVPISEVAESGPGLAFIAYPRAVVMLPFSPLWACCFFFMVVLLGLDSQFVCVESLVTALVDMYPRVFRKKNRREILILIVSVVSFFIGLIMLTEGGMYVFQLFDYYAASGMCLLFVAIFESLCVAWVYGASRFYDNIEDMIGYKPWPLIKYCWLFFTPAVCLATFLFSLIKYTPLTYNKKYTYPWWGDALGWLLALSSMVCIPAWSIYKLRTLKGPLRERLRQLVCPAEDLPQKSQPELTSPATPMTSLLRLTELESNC

rGAT-2 = molecular target: T2, rGAT-2 (Rattus norvegicus, UniProt P31646); test: [3H]GABA uptake, full competition curves at cloned rGAT-2 (transient transfection, COS cells); assay type: cell-based
T2 construct: randomly primed GAT-2 full-length or GAT-3 truncated or full-length cDNA clones; expressed in transfected cells; host or cells: COS cells, transient, plasmid pEVJB-rB14b
T2 sequence (P31646 1-602): T1 sequence (P31646 1-602)

TAUT = molecular target: T3, TAUT (Rattus norvegicus, UniProt P31643); test: [3H]taurine uptake, full competition curves at cloned TAUT (transient transfection, COS cells); assay type: cell-based
T3 sequence (P31643 1-621): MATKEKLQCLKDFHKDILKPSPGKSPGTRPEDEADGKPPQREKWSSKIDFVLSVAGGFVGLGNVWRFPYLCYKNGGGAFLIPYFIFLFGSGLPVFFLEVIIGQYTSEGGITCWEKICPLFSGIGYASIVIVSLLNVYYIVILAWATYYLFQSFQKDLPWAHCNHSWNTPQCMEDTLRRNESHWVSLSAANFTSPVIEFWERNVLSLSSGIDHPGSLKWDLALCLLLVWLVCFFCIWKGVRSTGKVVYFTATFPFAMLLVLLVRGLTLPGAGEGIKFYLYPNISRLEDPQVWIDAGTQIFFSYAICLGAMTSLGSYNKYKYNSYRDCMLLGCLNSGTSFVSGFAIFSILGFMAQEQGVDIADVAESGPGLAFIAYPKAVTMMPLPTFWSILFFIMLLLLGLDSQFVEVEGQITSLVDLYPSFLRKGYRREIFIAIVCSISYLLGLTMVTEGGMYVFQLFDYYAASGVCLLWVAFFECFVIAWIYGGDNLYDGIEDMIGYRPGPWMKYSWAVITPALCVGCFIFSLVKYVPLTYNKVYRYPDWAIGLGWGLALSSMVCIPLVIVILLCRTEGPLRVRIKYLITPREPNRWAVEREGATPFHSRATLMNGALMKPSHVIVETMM

neuronal cultures = test: [3H]GABA uptake in primary neuronal cell cultures; assay type: cell-based, rat
Protocol: Brains were removed aseptically from E17 embryonic Sprague-Dawley rats brains, carefully dissected free of meninges, and kept on ice. A single-cell suspension was made by mincing the brains, followed by trituration through a serological pipette. […] On day three cytosine β-D-arabinofuransoside (3 μM) was added to control the proliferation of non-neuronal cells. The cultures were used for transport assay approximately one week after plating.

Type 1 astrocytes = test: [3H]GABA uptake in Type 1 astrocyte cultures; assay type: cell-based, rat; details: read-out: IC50 for inhibition of [3H]GABA uptake, Type 1 astrocytes
Protocol: Preparation of primary rat astrocyte cell cultures: Primary glial cultures were established from newborn Sprague-Dawley rat brains. Brains minus cerebella were removed aseptically and carefully dissected free of meninges. […] The cells were dissociated by trituration through a serological pipette. Separate procedures were then used for the preparation of Type-1 and O-2A/Type-2 astrocyte cultures, as will now be described.
For the preparation of Type-1 astrocyte cultures, cells were plated onto uncoated 75 cm^2 flasks at low density (1 brain per 10 flasks, or approximately 8×10^4 cells/cm^2). The medium was changed the following day and twice a week thereafter. […] Cultures highly enriched in O-2A/Type-2 cells were prepared from mixed astrocyte cultures which consisted of a monolayer of Type 1 cells upon which rested large numbers of O-2A/Type 2 cells. […] The same brain cell suspensions as described above were plated at high density (1 brain per 75 cm^2 flask, or approximately 8×10^5 cells/cm^2) into flasks coated with poly-D-lysine (10 μg/ml). After 24 hours the medium was replaced and the cultures were subsequently fed twice a week. […] Complete medium was added to the flasks and the cell suspension was removed gently, care being taken to not disrupt the underlying Type 1 astrocyte monolayer. The cells were pelleted at low speed, resuspended in complete medium, and added to 24-well plates coated with poly-D-lysine (10 μg/ml). […] No attempt was made to distinguish or separate O-2A precursors from the more differentiated Type 2 astrocytes.

rat GAT-1 = rat GAT-1 (Rattus norvegicus, UniProt P23978); test: cell-based
Protocol: Cells grown in 24-well plates were washed 3× with HEPES-buffered saline (HBS, in mM: NaCl, 150; HEPES, 20; CaCl2, 1; glucose, 10; KCl, 5; MgCl2, 1; pH 7.4) and allowed to equilibrate on a 37° C. slide warmer. After 10 minutes the medium was removed and unlabeled drugs in HBS were added (450 μl/well). […] Plates were incubated at 37° C. for 10 minutes, then washed rapidly 3× with ice-cold HBS, using a 24-position plate washer (Brandel, Gaithersburg, Mass.; model PW-12). Cells were solubilized with 0.05% sodium deoxycholate/0.1N NaOH (0.25 ml/well), an aliquot neutralized with 1N HCl, and radioactivity was determined by scintillation counting. Protein was quantified in an aliquot of the solubilized cells using a BIO-RAD protein assay kit, according to the manufacturer's directions.
Lipophilic inhibitors were dissolved in DMSO.
Data Analysis: Competition curves were conducted in duplicate, using 10 concentrations of unlabeled drug.
COS cells grown in 75 cm^2 or 150 cm^2 flasks in DMEM with 10% bovine calf serum, 100 U/ml penicillin G, and 100 μg/ml streptomycin sulfate (37° C., 5% CO2) were transfected using DEAE-dextran. On the day following transfection the cells were split into 24-well assay plates coated with poly-D-lysine (10 μg/ml), and transport was measured 24 hours later.
After 10 minutes the medium was removed and unlabeled drugs in HBS were added (450 μl/well). […] Plates were incubated at 37° C. for 10 minutes, then washed rapidly 3× with ice-cold HBS, using a 24-position plate washer (Brandel, Gaithersburg, Mass.; model PW-12). Cells were solubilized with 0.05% sodium deoxycholate/0.1N NaOH (0.25 ml/well), an aliquot neutralized with 1N HCl, and radioactivity was determined by scintillation counting. Protein was quantified in an aliquot of the solubilized cells using a BIO-RAD protein assay kit, according to the manufacturer's directions.

[1] = molecular target: T4, taurine transporter (rB16a) (Rattus norvegicus, UniProt P31643); test: [3H]taurine uptake by COS-7 cells transfected with rB16a; details: for inhibition at 10 µM: COS-7, read-out: % Inhibition of [3H]taurine uptake, rB16a, inhibitor 10 μM; for inhibition at 10 µM / inhibition at 100 µM / inhibition at 1000 µM / % Inhibition of [3H]taurine uptake, rB16a: 50 nM [3H]taurine, 10 minutes, 37° C.; for inhibition at 100 µM: COS-7, read-out: % Inhibition of [3H]taurine uptake, rB16a, inhibitor 100 μM; for inhibition at 1000 µM: COS-7, read-out: % Inhibition of [3H]taurine uptake, rB16a, inhibitor 1 mM
T4 sequence (P31643 1-621): T3 sequence (P31643 1-621)
Protocol: Transient transfections of COS cells with the plasmid pEVJB-rB16a were carried out using DEAE-dextran with DMSO according to the method of Lopata et al. (58) with minor modifications. COS cells were grown (37° C., 5%CO2) in high glucose Dulbecco's modified Eagle medium supplemented with 10% bovine calf serum, 100 U/ml penicillin G, and 100 μg/ml streptomycin sulfate. Cells were routinely used two days after transfection for transport studies.
Plates were incubated at 37° C. for 10 minutes unless indicated otherwise, then washed rapidly 3× with ice cold HBS. Cells were solubilized with 0.05% sodium deoxycholate/0.1N NaOH), an aliquot was neutralized with 1N HCl, and radioactivity was determined by scintillation counting. Protein was quantified in an aliquot of the solubilized cells using a BIO-RAD protein assay kit, according to the manufacturer's directions.

[2] = COS, read-out: % Inhibition of [3H]GABA uptake, GAT-2
[3] = Rattus norvegicus, Neuron, read-out: IC50 for inhibition of [3H]GABA uptake, Neurons with NNC-711, in the presence of 10 μM NNC-711
[4] = Rattus norvegicus, Neuron, read-out: IC50 for inhibition of [3H]GABA uptake, Neurons, absence of NNC-711
[5] = read-out: IC50 for inhibition of [3H]GABA uptake, Neurons, absence of NNC-711
[6] = Rattus norvegicus, Astrocyte, 3 h
[7] = full competition curves, 50 nM [3H]taurine, read-out: IC50 for inhibition of [3H]taurine uptake, TAUT (Table 8)
[8] = read-out: IC50 for inhibition of [3H]GABA uptake, rGAT-2 (Table 8), full competition curves, 50 nM [3H]GABA
[9] = read-out: IC50 for inhibition of [3H]GABA uptake, Neurons with NNC-711, in the presence of 10 μM NNC-711

% Inhibition of [3H]taurine uptake, rB16a ([1]; inhibitor 1 mM)	Molecule	inhibition at 100 µM (GAT-2; [2]) [%]	IC50 (rGAT-2) [µM]	IC50 (neuronal cultures; [3]) [µM]	IC50 (neuronal cultures; [4]) [µM]	IC50 (neuronal cultures; [5]) [µM]	IC50 (Type 1 astrocytes; [6]) [µM]	IC50 (rat GAT-1) [µM]	IC50 (TAUT; [7]) [µM]	inhibition at 10 µM [1] [%]	inhibition at 100 µM [1] [%]	inhibition at 1000 µM [1] [%]	% Inhibition of [3H]taurine uptake, rB16a ([1]; inhibitor 10 μM)	% Inhibition of [3H]taurine uptake, rB16a ([1]; inhibitor 100 μM)	IC50 (rGAT-2; [8]) [µM]	IC50 (neuronal cultures; [9]) [µM]	IC50 (Type 1 astrocytes) [µM]	other results
–	N[C@@H]1CCC[C@H](C(=O)O)C1 (relative stereo) [ACHC, cis-3-aminocyclohexanecarboxylic acid]	3 ± 3	25900	1950	~75	77 ± 8	400 ± 200	132 ± 44	–	–	–	–	–	–	–	–	–	IC50 (TAUT): 9230 µM; IC50 (neuronal cultures; Rattus norvegicus, read-out: IC50, NNC-711-resistant GABA transport, neuronal cultures, in the presence of 10 μM NNC-711): ~2000 µM
44 ± 6 (8) %	NCCCC(=O)O [GABA, gamma-aminobutyric acid]	–	17 ± 6	–	–	–	–	–	720 ± 170	9 ± 6	~10	~40	–	–	–	–	–	VMAX of GABA transport, COS/rB14b (GAT-2) (GAT-2; various concentrations of [3H]GABA, 30 seconds): 2.5±1.2 nmoles/mg protein; affinity of the taurine transporter for GABA ([1]; from Table 15): ~1 mM
–	NCCS(=O)O [hypotaurine]	–	52 ± 6	25 ± 2	742 ± 200	–	69 ± 30	1010	47	30 to 40	~90	~100	26 ± 7 (7) %	84 ± 3 (4) %	–	–	–	–
92%	N=C(N)NCCS(=O)(=O)O [GES, guanidinoethanesulfonic acid]	–	–	–	–	2110	–	–	129	–	–	–	11%	45%	696 ± 110	508 ± 60	310 ± 60	–
–	NCC[C@H](N)C(=O)O [L-DABA, L-(2,4)diaminobutyric acid]	43 ± 8	300 ± 51	861 ± 225	165 ± 20	–	3460	128 ± 12	–	–	–	–	–	–	–	–	–	IC50 (TAUT): 41800 µM
–	O=C(O)C1=CCCNC1 [guvacine]	–	228 ± 38	–	–	–	23 ± 10	39 ± 6	1030	–	–	–	–	–	–	–	–	inhibition at 10 µM (GAT-2; [2]): 13 ± 1%; IC50 (neuronal cultures; Rattus norvegicus, Neuron, read-out: IC50 for inhibition of [3H]GABA uptake, Neurons): 14 ± 2 µM
–	NCCC(=O)O [β-alanine]	86 ± 1	66 ± 9	~50	4060	–	100 ± 30	2920 ± 197	176	15	51	96	–	–	–	48 ± 10	–	IC50 (neuronal cultures; Rattus norvegicus, read-out: IC50 for [3H]GABA uptake, neuronal cultures, absence of NNC-711): ~4000 µM
–	hydroxynipecotic acid [OH-nipecotic]	–	–	–	–	22 ± 2	–	–	4810	–	–	–	–	–	567 ± 50	304 ± 100	1610	% Inhibition of [3H]GABA uptake, GAT-2 (GAT-2; inhibitor 10 μM, 50 nM [3H]GABA, 10 minutes, 37° C.): 9 ± 7 (3) %
–	O=C(O)C1=CCCN(CCON=C(c2ccccc2)c2ccccc2)C1 [NNC-711]	–	–	–	–	0.28 ± 0.1	–	–	207	–	–	–	–	–	729 ± 319	–	2 ± 0.3	specific [3H]GABA uptake that persisted, neuronal cultures (neuronal cultures; NNC-711 at 10 μM): 31±1%; IC50 (neuronal cultures; read-out: IC50 for [3H]GABA uptake, neuronal cultures): ~0.3 µM

Molecule	% Inhibition of [3H]taurine uptake, rB16a ([1]; inhibitor 1 mM)	inhibition at 100 µM (GAT-2; [2]) [%]	IC50 (rGAT-2) [µM]	IC50 (neuronal cultures; [3]) [µM]	IC50 (neuronal cultures; [4]) [µM]	IC50 (neuronal cultures; [5]) [µM]	IC50 (Type 1 astrocytes; [6]) [µM]	IC50 (rat GAT-1) [µM]	IC50 (TAUT; [7]) [µM]	inhibition at 10 µM [1] [%]	inhibition at 100 µM [1] [%]	inhibition at 1000 µM [1] [%]	% Inhibition of [3H]taurine uptake, rB16a ([1]; inhibitor 10 μM)	% Inhibition of [3H]taurine uptake, rB16a ([1]; inhibitor 100 μM)	IC50 (rGAT-2; [8]) [µM]	IC50 (neuronal cultures; [9]) [µM]	IC50 (Type 1 astrocytes) [µM]	other results
NCCS(=O)(=O)O [taurine, 2-aminoethanesulfonic acid]	100° %	–	1270	–	–	–	–	32300	48 ± 11	30 to 40	~90	~100	29 ± 8 (5) %	83 ± 2 (5) %	–	–	–	VMAX of taurine transport, COS/rB16a ([1]; various concentrations of [3H]taurine, 30 seconds): 0.96±0.27 nmoles/mg protein
